Results on 21 molecules are retold here after ChEMBL document CHEMBL5120778, “Jatrophane Diterpenoids with Kv1.3 Ion Channel Inhibitory Effects from Euphorbia helioscopia” (J Nat Prod, 2022).

Data set [1] addresses T1, Potassium voltage-gated channel subfamily A member 3 (Homo sapiens, UniProt P22001). Kind of data set: Inhibition of human Kv1.3 expressed in HEK293 cells assessed as inhibition of tetracyclin induced current at 1 uM at holding potential of -80 mV by patch clamp method relative to control. The format is cell-based.
The target of data set [2] is T1, Potassium voltage-gated channel subfamily A member 3. Kind of data set: Inhibition of human Kv1.3 expressed in HEK293 cells assessed as inhibition of tetracyclin induced current at 30 uM at holding potential of -80 mV by patch clamp method relative to control. The format is cell-based. Background: In patch-clamp work, channel activity is measured electrically.
Data set [3] has as its system HEK293. Description: Cytotoxicity against HEK293 cells assessed as reduction in cell proliferation at 30 uM. The format is toxicity, cell-based. To be noted: human, hek293, 30 µM.
Data set [4] deals with T1, Potassium voltage-gated channel subfamily A member 3. Kind of data set: Inhibition of human Kv1.3 expressed in HEK293 cells assessed as inhibition of tetracyclin induced current at holding potential of -80 mV by patch clamp method. It counts as cell-based.

T1 sequence (P22001 whole entry): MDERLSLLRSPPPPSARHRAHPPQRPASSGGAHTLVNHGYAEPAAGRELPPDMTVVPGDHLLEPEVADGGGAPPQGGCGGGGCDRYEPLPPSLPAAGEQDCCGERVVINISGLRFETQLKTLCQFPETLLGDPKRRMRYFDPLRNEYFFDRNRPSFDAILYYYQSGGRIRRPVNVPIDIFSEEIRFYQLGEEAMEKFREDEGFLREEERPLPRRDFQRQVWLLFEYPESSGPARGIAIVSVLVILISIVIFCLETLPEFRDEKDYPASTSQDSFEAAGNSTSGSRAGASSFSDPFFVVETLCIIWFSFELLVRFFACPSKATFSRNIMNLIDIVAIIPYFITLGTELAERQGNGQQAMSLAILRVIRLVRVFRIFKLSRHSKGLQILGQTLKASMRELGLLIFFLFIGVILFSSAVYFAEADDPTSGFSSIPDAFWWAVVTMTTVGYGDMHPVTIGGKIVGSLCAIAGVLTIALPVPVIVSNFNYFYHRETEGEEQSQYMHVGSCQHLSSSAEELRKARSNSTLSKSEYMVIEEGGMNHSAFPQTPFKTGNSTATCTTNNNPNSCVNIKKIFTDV

Usually inhibition stands for the relative decrease from the control value, in per cent. For `CC(=O)O[C@@H]1C[C@@H](OC(C)=O)C(C)(C)/C=C/[C@H](C)[C@H](OC(C)=O)[C@@]2(O)C[C@H](C)[C@H](OC(=O)c3cccc(O)c3)[C@@H]2/C=C/1C`, the inhibition was found to be 6.16% in data set [1] and 74.4% in data set [2]. Also, the Activity entry in data set [3] is on record as “Non-Toxic”.

As to `CC(=O)O[C@@H]1[C@H](C)/C=C/C(C)(C)C(=O)C[C@@H](O)/C(C)=C/[C@H]2[C@@H](OC(=O)c3ccccc3)[C@H](C)C[C@]12OC(C)=O`, the figures for the inhibition in data set [1] and in data set [2] were 2.38% and 94.6%, respectively. The Activity result in data set [3] is on record as “Non-Toxic”.

Turning to `CC(=O)O[C@@H]1[C@@H](C)/C=C/C(C)(C)C(=O)C[C@@H](OC(C)=O)/C(CO)=C/[C@H]2[C@@H](OC(=O)c3ccccc3)[C@H](C)C[C@]12OC(C)=O`, the inhibition in data set [1] was 5.94%; in data set [2], 96.9%. Moreover, in data set [3], the Activity result is “Non-Toxic”.

What is called IC50 is the midpoint of a concentration-inhibition curve. On to `Fc1ccc([C@@H]2CCNC[C@H]2COc2ccc3c(c2)OCO3)cc1` [PAROXETINE], for which the inhibition in data set [2] was 48.1%. For the same molecule, the Activity result in data set [3] is given as “Non-Toxic”. Besides, the IC50 in data set [4] worked out at 31.9 µM.

On to `CC(=O)O[C@@H]1[C@@H](C)/C=C/C(C)(C)[C@H](OC(C)=O)C[C@@H](OC(C)=O)/C(C)=C/[C@H]2[C@@H](OC(=O)c3ccccc3)[C@@H](C)C[C@]12OC(C)=O`, for which the inhibition in data set [1] came to 8.34%; in data set [2], 90%. Moreover, the Activity entry in data set [3] was “Non-Toxic”.

For the molecule `CC(=O)O[C@@H]1C[C@@H](OC(C)=O)C(C)(C)[C@H](O)[C@H]2O[C@@]3(C[C@H](C)[C@H](OC(=O)c4ccccc4)[C@@H]3/C=C/1C)[C@@H](OC(C)=O)[C@H]2C`, the inhibition was 21% in data set [1] and 96.2% in data set [2]. In data set [3], the Activity result is listed as “Non-Toxic”.

Regarding `CC(=O)O[C@@H]1[C@H](C)/C=C/C(C)(C)C(=O)C[C@@H](OC(=O)c2cccnc2)/C(C)=C/[C@H]2[C@@H](OC(=O)c3ccccc3)[C@H](C)C[C@]12OC(C)=O`, the inhibition in data set [1] amounted to 10.5%; in data set [2] it was 95.3%. Besides, in data set [3], the Activity result was “Non-Toxic”.

Consider `CC(=O)O[C@@H]1CC(=O)C(C)(C)/C=C/[C@@H](C)[C@@H](O)[C@@]2(OC(C)=O)C[C@H](C)[C@H](OC(=O)c3ccccc3)[C@@H]2/C=C/1C`, for which the inhibition was determined as 24.6% in data set [1] and 85.4% in data set [2]. Also, the Activity result in data set [3] was “Non-Toxic”.

Consider `CC(=O)O[C@@H]1C[C@@H](OC(C)=O)C(C)(C)[C@H](O)/C=C(\C)[C@H](OC(C)=O)[C@@]2(OC(C)=O)C[C@H](C)[C@H](OC(=O)c3ccccc3)[C@@H]2/C=C/1C`, for which the inhibition worked out at 50.4% in data set [1] and 93.7% in data set [2]. Further, the Activity result in data set [3] is “Non-Toxic”. In addition, the IC50 in data set [4] came out at 0.9 µM.

On to `CC(=O)O[C@]12C[C@H](C)[C@H](OC(=O)c3ccccc3)[C@@H]1/C=C(\C)[C@H](O)CC(=O)C(C)(C)C/C=C(\C)C2=O`, for which the inhibition worked out at 4.96% in data set [1] and 88.7% in data set [2]. Further, the Activity entry in data set [3] was “Non-Toxic”.

On to `CC(=O)O[C@@H]1C[C@@H](O)/C(C)=C/[C@H]2[C@@H](OC(=O)c3ccccc3)[C@@H](C)C[C@]2(OC(C)=O)C(=O)/C(C)=C/[C@H](O)C1(C)C`, for which the inhibition in data set [1] is 7.36%; in data set [2] it was 84.4%. The Activity entry in data set [3] is “Non-Toxic”.

For the molecule `CC(=O)O[C@@H]1[C@H](C)[C@@H](C=C(C)C)C(=O)C[C@@H](OC(=O)c2cccnc2)/C(C)=C/[C@H]2[C@@H](OC(=O)c3ccccc3)[C@H](C)C[C@]12OC(C)=O`, the values for the inhibition in data set [1] and in data set [2] were 30.9% and 98.7%, respectively. In addition, the Activity entry in data set [3] is on record as “Non-Toxic”. The IC50 in data set [4] is 6.5 µM.

In the case of `CC(=O)O[C@@H]1C[C@@H](OC(C)=O)C(C)(C)/C=C/[C@H](C)[C@@H](O)[C@@]2(OC(C)=O)C[C@@H](C)[C@H](OC(=O)c3ccccc3)[C@@H]2/C=C/1C`, the inhibition in data set [1] is 21.1%; in data set [2], 97.4%. Moreover, the Activity entry in data set [3] is “Non-Toxic”.

Turning to `CC(=O)O[C@]12C[C@@H](C)[C@H](OC(=O)c3ccccc3)[C@@H]1/C=C(\C)[C@H](O)CC(=O)C(C)(C)/C=C/[C@@H](C)[C@H]2O`, the results for the inhibition in data set [1] and in data set [2] were 13.4% and 93.9%, respectively. The Activity result in data set [3] is “Non-Toxic”.

For `CC(=O)O[C@@H]1[C@H](C)/C=C/C(C)(C)C(=O)C[C@@H](OC(C)=O)/C(CO)=C/[C@H]2[C@@H](OC(=O)c3ccccc3)[C@H](C)C[C@]12OC(C)=O`, the results for the inhibition in data set [1] and in data set [2] were 5.38% and 97.5%, respectively. Also, the Activity entry in data set [3] is listed as “Non-Toxic”.

For `CC(=O)O[C@@H]1CC(=O)/C(C)=C/[C@H]2[C@@H](OC(=O)c3ccccc3)[C@@H](C)C[C@]2(O)[C@@H](OC(C)=O)[C@@H](C)/C=C/C1(C)C`, the inhibition turned out to be 4.72% in data set [1] and 89.4% in data set [2]. In addition, the Activity entry in data set [3] is “Non-Toxic”.

With `CC(=O)O[C@@H]1C[C@@H](OC(C)=O)C(C)(C)/C=C/[C@H](C)[C@H](OC(C)=O)[C@@]2(O)C[C@H](C)[C@H](OC(=O)c3ccccc3)[C@@H]2/C=C/1C` [EUPHORNIN], the figures for the inhibition in data set [1] and in data set [2] were 8.87% and 88.7%, respectively. The Activity entry in data set [3] is “Non-Toxic”.

With `CC(=O)O[C@@H]1C[C@@H](O)/C(C)=C/[C@H]2[C@@H](OC(=O)c3ccccc3)[C@H](C)C[C@]2(OC(C)=O)C(=O)/C(C)=C/[C@H](O)C1(C)C`, the inhibition was 6.06% in data set [1] and 85.6% in data set [2]. Moreover, the Activity entry in data set [3] is recorded as “Non-Toxic”.

As for `CC(=O)O[C@@H]1C[C@@H](OC(C)=O)C(C)(C)[C@@H](O)[C@H](O)[C@H](C)[C@H](OC(C)=O)[C@@]2(O)C[C@H](C)[C@H](OC(=O)c3ccccc3)[C@@H]2/C=C/1C`, the values for the inhibition in data set [1] and in data set [2] were 24.3% and 95.7%, respectively. In addition, the Activity entry in data set [3] is “Non-Toxic”.

In the case of `CC(=O)O[C@@H]1C[C@@H](OC(C)=O)C(C)(C)[C@@H](O)/C=C(\C)C(=O)[C@@]2(OC(C)=O)C[C@H](C)[C@H](OC(=O)c3ccccc3)[C@@H]2/C=C/1C`, the inhibition in data set [1] was found to be 57%; in data set [2] it was 98.6%. Besides, the Activity result in data set [3] is on record as “Non-Toxic”. Further, the IC50 in data set [4] worked out at 0.9 µM.

`CC(=O)O[C@]12C[C@@H](C)[C@H](OC(=O)c3ccccc3)[C@@H]1/C=C(\C)[C@H](O)CC(=O)C(C)(C)[C@@H](O)/C=C(\C)C2=O`: the inhibition in data set [1] is 5.67%; in data set [2], 90.7%. The Activity result in data set [3] was “Non-Toxic”.
